From US10664967B2, “Methods, systems, and apparatuses for quantitative analysis of heterogeneous biomarker distribution” (Ventana Medical Systems, Inc., priority 2014, dated 2020)

Test system: SKBR3 cells
Assay: Phosphomarker expression in untreated vs drug treated FFPE SKBR3 cells (multiplexed QD spectral imaging, IF, immunoblot)
Format: cell-based
Settings: 250 nM, 24 hrs, MTIP, consistent with IF and immunoblot
Protocol: Breast cancer cell line model SKBR3 and the prostate adenocarcinoma cell line model LNCaP were cultured in McCoy's 5A medium supplemented with 10% FBS. SKBR3 cells were treated with the ATP-competitive pan-AKT kinase inhibitor drug GSK690693 at low nanomolar concentration (250 nM) for 24 hrs for antibody validation studies. After drug treatment, cells were washed using cold 1×PBS, fixed in cold 10% Neutral Buffered Formalin and embedded in paraffin for sectioning and slide preparation.
Protein samples from SKBR3 cells were prepared by denaturing cell lysate in an equal volume of Laemmli sample buffer (Biorad, Hercules, Calif.) with 0.5 M dithiothreitol at 100° C. for 5 min. Proteins were separated by SDS-PAGE, transferred to polyvinylidene difluoride membranes, blotted with primary antibodies and detected with horseradish peroxidase-conjugated secondary antibodies. Protein bands were detected using ECL (Thermo Scientific).
Immunostaining for fluorescence spectral imaging was performed on FFPE specimens of SKBR3 cells and tumor tissue on a Benchmark XT autostainer (Ventana Medical Systems, Tucson, Ariz.), to evaluate phosphoprotein staining with the hapten-anti-hapten chemistry in FFPE cell and tumor specimens. All FFPE specimens (cell models, xenograft or tumor tissues) were subjected to automated deparaffinization in EZPREP buffer (VMSI Cat #950-102), and cell conditioning with CC1 buffer (VMSI Cat #950-124) for 90 min prior to antibody incubations. FFPE specimens were incubated with a single or a cocktail of hapten-conjugated primary antibodies (pS6:BF, pAKT 5473:DIG, peIF4G:TS, pPRAS40:NP, pERK 1/2:NCA, pAKT T308:DNP at 5, 15, 20, 20, 30, 12.5 μg/mL respectively) at 37° C. for 32 minutes. Following the primary antibody incubation step, samples were incubated by appropriate combination of secondary anti-hapten antibody QD conjugates (anti-BF:QD525, anti-DIG:QD565, anti-TS:QD585, anti-NP:[…], anti-NCA:QD625, anti-DNP:QD655 at 40, 50, 50, 70, 40, 30 nM concentrations respectively) at 37° C. for 32 minutes. Following automated staining with antibodies, samples were dehydrated in ethanol series, followed by xylene, and mounted using Cytoseal 60 (Thermo Scientific).
The specificity of the antibodies selected was tested using a series of IHC experiments using FFPE cell and xenograft model systems (FIGS. 14 15 and 16). The anti-phosphomarker hapten conjugated primary and anti-hapten monoclonal secondary functionality was tested using the SKBR3 cell line, a well-established breast cancer model of PI3K pathway activation (Englemen PNAS ref). SKBR3 cells were either untreated or treated with the AKT small molecule inhibitor GSK690693. The two cell populations were prepared as FFPE blocks and stained using the anti-phosphomarker primaries, followed by anti-hapten secondary antibodies conjugated to HRP to permit contrast through DAB. This permitted verification of the hapten-anti-hapten labeling scheme (FIG. 14; the DAB stain pattern was consistent with primary-anti-species secondary staining performed in parallel).
A multiplexed experiment was then conducted using the combined markers followed by hyperspectral imaging and processing to separate the signal contributions for each marker (FIG. 14b). For additional comparison, SKBR3 cell lysates were subjected to immunoblotting with all six phosphoantibodies (FIG. 14c). […] The similarity of phosphomarker expression changes upon drug treatment detected using MTIP to that observed in the IF and immunoblot staining validate the specificity and functionality of the conjugated antibodies used in the multiplexed assay context.

Question: `CCn1c(-c2nonc2N)nc2c(C#CC(C)(C)O)ncc(OC[C@H]3CCCNC3)c21` [GSK690693] was tested. Which “pAKT308 expression change following drug treatment” value did it give?
Answer: The value was “relative increase in expression”.

Question: And the “pAKT473 expression change following drug treatment” value?
Answer: The value was “relative increase in expression”.

Question: And the “pERK expression change following drug treatment” value?
Answer: Its value is “reduction in the expression”.

Question: And the “pPRAS40 expression change following drug treatment” value?
Answer: The value was “reduction in the expression”.

Question: And the “pS6 expression change following drug treatment” value?
Answer: Its value is “reduction in the expression”.

Question: What about the “peIF4G expression change following drug treatment” value of the same molecule?
Answer: The value was “did not show any significant change in the expression”.
